Key:
Phytophthora infestans = assay: whole plant or invertebrate; type: in vivo; conditions: in Solanum lycopersicum, foliar, 96 h, read-out: control of fungal infection, Phytophthora infestans
Plasmopara viticola = Plasmopara viticola (downy mildew of grapevine), grapevine leaf disk assay, preventive; type: in vivo; conditions: foliar, 168 h, 200 ppm, grapevine leaf disks, assessed seven days after inoculation, read-out: control of fungal infection, Plasmopara viticola
[1] = system: Erysiphe graminis f.sp. tritici; assay: Erysiphe graminis f.sp. tritici (wheat powdery mildew), wheat leaf segment assay, preventive; type: in vivo; conditions: Blumeria graminis, foliar, 96 h; 200 ppm; wheat leaf segments; assessed four days after inoculation; read-out: control of fungal infection, Etysiphe graminis f.sp. tritici
Septoria tritici = Septoria tritici (leaf blotch), liquid culture growth inhibition in nutrient broth; type: cell-based; conditions: Zymoseptoria tritici; 200 ppm; PDB broth, 24 C; inhibition of growth determined photometrically after 72 hrs; read-out: control of fungal infection, Septoria tritici
Pythium ultimum = Pythium ultimum (Damping off), liquid culture growth inhibition in potato dextrose broth; type: cell-based; conditions: Globisporangium ultimum; 20 ppm; potato dextrose broth, 24° C.; inhibition of growth determined photometrically after 48 hours; read-out: control of fungal infection, Pythium ultimum

SMILES | pest or weed control at 200 ppm (Phytophthora infestans) [%] | pest or weed control at 200 ppm (Plasmopara viticola) [%] | pest or weed control at 200 ppm [1] [%] | inhibition of growth at 200 ppm (Septoria tritici) [%] | inhibition of growth at 20 ppm (Pythium ultimum) [%]
CCON=CC(C)(C)NC(=O)C(CC)Oc1ccc2ncc(I)cc2c1 (stereo not drawn) [Compound No. 3, N-(2-Ethoxyimino-1,1-dimethyl-ethyl)-2-(3-iodo-quinolin-6-yloxy)-butyramide] | ≥ 60 | ≥ 60 | ≥ 60 | ≥ 60 | 
C=CCON=CC(C)(C)NC(=O)C(CC)Oc1cc(C)c2ncc(I)cc2c1 (stereo not drawn) [Compound No. 7, N-(2-allyloxyimino-1,1-dimethyl-ethyl)-2-(3-iodo-8-methyl-quinolin-6-yloxy)-butyramide] |  |  | ≥ 60 | ≥ 60 | 
CSC(Oc1ccc2ncc(Br)cc2c1)C(=O)NC(C)(C)C=NOCc1ccc(Cl)cc1 (stereo not drawn) [Compound No. 9, 2-(3-Bromo-quinolin-6-yloxy)-N-[2-(4-chloro-benzyloxyimino)-1,1-dimethyl-ethyl]-2-methylsulfanyl-acetamide] |  |  |  | ≥ 60 | 
CSC(Oc1ccc2ncc(Br)cc2c1)C(=O)NC(C)(C)C=NOCC(C)C (stereo not drawn) [Compound No. 18, 2-(3-Bromo-quinolin-6-yloxy)-N-(2-iso-butoxyimino-1,1-dimethyl-ethyl)-2-methylsulfanyl-acetamide] |  | ≥ 60 |  | ≥ 60 | 
CSC(Oc1cc(C)c2ncc(Br)cc2c1)C(=O)NC(C)(C)C=NOC(C)(C)C (stereo not drawn) [Compound No. 22, 2-(3-Bromo-8-methyl-quinolin-6-yloxy)-N-(2-tert-butoxyimino-1,1-dimethyl-ethyl)-2-methylsulfanyl-acetamide] |  |  |  | ≥ 60 | 
CCOC(=O)C(C)(C)O/N=C/C(C)(C)NC(=O)C(Oc1cc(C)c2ncc(Br)cc2c1)SC (stereo not drawn) [Compound No. 24, 2-[2-[2-(3-Bromo-8-methyl-quinolin-6-yloxy)-2-methylsulfanyl-acetylamino]-2-methyl-prop-(E)-ylideneaminooxy]-2-methyl-propionic acid ethyl ester] |  |  |  | ≥ 60 | 
CSC(Oc1cc(C)c2ncc(Br)cc2c1)C(=O)NC(C)(C)C=NOCC(C)C (stereo not drawn) [Compound No. 25, 2-(3-Bromo-8-methyl-quinolin-6-yloxy)-N-(2-isobutoxyimino-1,1-dimethyl-ethyl)-2-methylsulfanyl-acetamide] |  |  |  | ≥ 60 | 
C=CCON=CC(C)(C)NC(=O)C(Oc1cc(C)c2ncc(Br)cc2c1)SC (stereo not drawn) [Compound No. 28, N-(2-Allyloxyimino-1,1-dimethyl-ethyl)-2-(3-bromo-8-methyl-quinolin-6-yloxy)-2-methylsulfanyl-acetamide] |  | ≥ 60 |  | ≥ 60 | 
CCCCON=CC(C)(C)NC(=O)C(Oc1cc(C)c2ncc(Br)cc2c1)SC (stereo not drawn) [Compound No. 30, 2-(3-Bromo-8-methyl-quinolin-6-yloxy)-N-(2-butoxyimino-1,1-dimethyl-ethyl)-2-methylsulfanyl-acetamide] |  |  |  | ≥ 60 | 
CCON=CC(C)(C)NC(=O)C(Oc1cc(Cl)c2ncc(Br)cc2c1)SC (stereo not drawn) [Compound No. 36, 2-(3-Bromo-8-chloro-quinolin-6-yloxy)-N-(2-ethoxyimino-1,1-dimethyl-ethyl)-2-methylsulfanyl-acetamide] |  | ≥ 60 | ≥ 60 | ≥ 60 | 
CON=CC(C)(C)NC(=O)C(Oc1ccc2ncc(C#C[Si](C)(C)C)cc2c1)SC (stereo not drawn) [Compound No. 37, N-(2-methoxyimino-1,1-dimethyl-ethyl)-2-methylsulfanyl-2-(3-trimethylsilanylethynyl-quinolin-6-yloxy)-acetamide] | ≥ 60 | ≥ 60 | ≥ 60 | ≥ 60 | 
CSC(Oc1cc(C)c2ncc(I)cc2c1)C(=O)NC(C)(C)CC=NOC(C)(C)C (stereo not drawn) [Compound No. 43, N-(3-tert-Butoxyimino-1,1-dimethyl-propyl)-2-(3-iodo-8-methyl-quinolin-6-yloxy)-2-methylsulfanyl-acetamide] |  |  |  | ≥ 60 | 
CSC(Oc1cc(C)c2ncc(I)cc2c1)C(=O)NC(C)(C)CC=NOCc1ccccc1 (stereo not drawn) [Compound No. 47, N-(3-Benzyloxyimino-1,1-dimethyl-propyl)-2-(3-iodo-8-methyl-quinolin-6-yloxy)-2-methylsulfanyl-acetamide] |  | ≥ 60 |  | ≥ 60 | 
CON=CCC(C)(C)NC(=O)C(Oc1ccc2ncc(I)cc2c1)SC (stereo not drawn) [Compound No. 92, 2-(3-iodo-quinolin-6-yloxy)-N-(3-methoxyimino-1,1-dimethyl-propyl)-2-methylsulfanyl-acetamide] |  |  |  |  | ≥ 60
CON=C(C)CC(C)(C)NC(=O)C(Oc1ccc2ncc(Br)cc2c1)SC (stereo not drawn) [Compound No. 104, 2-(3-Bromo-quinolin-6-yloxy)-N-(3-methoxyimino-1,1-dimethyl-butyl)-2-methylsulfanyl-acetamide] | ≥ 60 | ≥ 60 | ≥ 60 |  | 
CSC(Oc1ccc2ncc(Br)cc2c1)C(=O)NC(C)(C)C=NOCc1ccccc1 (stereo not drawn) [Compound No. 109, N-(2-Benzyloxyimino-1,1-dimethyl-ethyl)-2-(3-bromo-quinolin-6-yloxy)-2-methylsulfanyl-acetamide] | ≥ 60 | ≥ 60 |  | ≥ 60 | 
CSC(Oc1cc(C)c2ncc(Br)cc2c1)C(=O)NC(C)(C)C=NOCc1ccccc1 (stereo not drawn) [Compound No. 110, N-(2-Benzyloxyimino-1,1-dimethyl-ethyl)-2-(3-bromo-8-methyl-quinolin-6-yloxy)-2-methylsulfanyl-acetamide] |  |  |  | ≥ 60 | 
CCON=C(Cc1ccsc1)C(C)(C)NC(=O)C(Oc1ccc2ncc(Br)cc2c1)SC (stereo not drawn) [Compound No. 125, 2-(3-Bromo-quinolin-6-yloxy)-N-{2-[(E or Z)-ethoxyimino]-1,1-dimethyl-3-thiophen-3-yl-propyl}-2-methylsulfanyl-acetamide] |  | ≥ 60 |  | ≥ 60 | 
C=CCON=C(Cc1ccsc1)C(C)(C)NC(=O)C(Oc1ccc2ncc(Br)cc2c1)SC (stereo not drawn) [Compound No. 126, N-{2-[(E or Z)-Allyloxyimino]-1,1-dimethyl-3-thiophen-3-yl-propyl}-2-(3-bromo-quinolin-6-yloxy)-2-methylsulfanyl-acetamide] |  | ≥ 60 |  | ≥ 60 | 
CCc1cc(OC(SC)C(=O)NC(C)(C)C=NOC)cc2cc(Br)cnc12 (stereo not drawn) [Compound No. 133, 2-(3-Bromo-8-ethyl-quinolin-6-yloxy)-N-(2-methoxyimino-1,1-dimethyl-ethyl)-2-methylsulfanyl-acetamide] |  | ≥ 60 |  | ≥ 60 | 
C#Cc1cnc2c(C)cc(OC(CC)C(=O)NC(C)(C)C=NOCC(C)C)cc2c1 (stereo not drawn) [Compound No. 136, 2-(3-Ethynyl-8-methyl-quinolin-6-yloxy)-N-(2-isobutoxyimino-1,1-dimethyl-ethyl)-butyramide] |  |  |  | ≥ 60 | 
C#Cc1cnc2c(C)cc(OC(CC)C(=O)NC(C)(C)C=NOC(C)(C)C)cc2c1 (stereo not drawn) [Compound No. 137, N-(2-tert-Butoxyimino-1,1-dimethyl-ethyl)-2-(3-ethynyl-8-methyl-quinolin-6-yloxy)-butyramide] |  |  | ≥ 60 | ≥ 60 | 

Source: patent US8507509B2, “Saturated and insaturated bi- or tricyclic aryloxyacetamine derivatives and their use as fungicides” (Syngenta Crop Protection LLC, priority 2007, dated 2013)
